Experimental data published in US20250346601A1, “HETEROCYCLIC COMPOUNDS FOR THE PREVENTION AND THERAPY OF CIRCADIAN RHYTHM DISORDERS” (UNIVERZITA PALACKEHO V OLOMOUCI, priority 2022, published 2025).

Columns and labels:
[1] = system: U2OS line transduced with the Bmal 1-Luc reporter; experiment: Period of the circadian rhythm in U2OS cells with Bmal1-Luc reporter (luminescence, cosinor analysis); type: cell-based, Human; conditions: U2OS, DMSO control = 1.00
Method: Human osteosarcoma U2OS cells were grown in standard DMEM medium with 10% fetal bovine serum. U2OS cells were transduced with lentiviral particles containing a Bmall-Luc fusion reporter and selected under Blasticidin. The cell line was clonally expanded and a single monoclonal cell line was used for further experiments. Cells were cultured in a 384-well plate in growth medium to 90+% confluence. Test compound or vehicle (DMSO) was applied to recording medium with 100 U/ml penicillin, 100 ug/ml streptomycin, 1x GlutaMAX, 10% fetal bovine serum, and 0.1 mM Luciferin-EF. Luminescence was recorded every hour for the next 144 hours. Circadian rhythm analysis was performed using cosinor analysis.
The length of the period was expressed relative to the period of cells affected only by DMSO vehicle (their period is therefore 1.00). […] The overall effect on circadian oscillations unequivocally proves that the compounds of formula I can be also used to temporally modulate the concentration and activity of not only BMAL1, but also other components of the oscillator including the critical components PER2, CRY and CLOCK in time, as these are an essential part of the mechanism generating the rhythmic expression of the luminescent reporter used. The concentration and level of other proteins, whose rhythmic expression is controlled by an oscillator in the brain and peripheral tissues (so-called clock-controlled genes), are also necessarily affected. The influence of the compounds of formula I on the activity of oscillator components and subordinate genes also means influencing the physiological processes of the cell controlled by these genes and proteins. N^6-furfuryladenine was used as a reference compound. […] The ability to shift the phase of the circadian cycle can be seen in FIG. 2.

[2] = system: explanted choroid plexus (ChP) of 4th brain ventricle; experiment: PER2::Luc rhythm in explanted choroid plexus (luminescence microscopy); type: cell-based, mouse; conditions: 200 uM, choroid plexus explant
Method: FIG. 6: Compound 4 affects the circadian clock in the explanted choroid plexus (CHP). (A) Individual PER2::Luc traces in analysed single-cell-sized regions of interest (ROIs) of explanted choroid plexus (CP) cultivated over 5 days ex vivo in the presence of DMSO (left) or compound 4 (right). Cosine curve below the traces indicates average oscillation across the whole explant; see dramatic increase of period in the presence of 200 uM compound 4. […] (Example 15)
Male mPer2Luc were kept and sacrificed under the same conditions as above. Their brains were removed, choroid plexus was dissected from the 4th ventricle in ice-cold HBSS medium and placed on Millicell Culture Inserts inside 6-well plate with test compound or DMSO vehicle in 1 ml air-buffered recording medium supplemented with 100 U/ml penicillin, 100 ug/ml streptomycin (Sigma-Aldrich, St. Luis, MO, USA), 1x GlutaMAX (ThermoFisher, Waltham, MA, USA), 1x B27 (ThermoFisher) and 0.1 mM Luciferin-EF (Promega Madison, WI, USA). The were placed inside Luminoview LV200 Miscroscope (Olympus, USA) with liquid-cooled EM-CCD camera (Hamamatsu) and luminescence was recorded by 10 min exposure every 1h.

[3] = system: NIH3T3 line transfected with the Per2-Luc reporter; experiment: Period of the circadian rhythm in NIH3T3 fibroblasts with Per2-Luc reporter (luminescence, cosinor analysis); type: cell-based, mouse; conditions: NIH3T3, DMSO control = 1.00
Method: NIH3T3 mouse embryonic fibroblasts were grown in standard DMEM with 10% fetal bovine serum. NIH3T3 cells were transfected with 1 μg of Per2-Luc reporter using GeneJuice and selected under hygromycin. The cell line was clonally expanded and a single monoclonal cell line was used for further experiments. Cells were cultured in a 96-well plate in growth medium to 90+% confluence. Test compound or vehicle (DMSO) was applied to recording medium with 100 U/ml penicillin, 100 μg/ml streptomycin, 1x GlutaMAX, 10% fetal calf serum and 0.1 mM Luciferin-EF (Promega Madison, WI, USA). Luminescence was recorded every hour for the next 144 hours. Circadian rhythm analysis was performed using cosinor analysis. Period length was expressed relative to the period of cells affected only by DMSO vehicle (their period length is therefore 1.00).

[4] = system: explanted suprachiasmatic nuclei (SCN) of the hypothalamus; experiment: PER2::Luc rhythm in organotypic explants of suprachiasmatic nucleus (LumiCycle); type: cell-based, mouse; conditions: ratio of period 72 h after and 72 h before application
Method: FIG. 5. Compounds of formula I modulate the parameters of the circadian clock in the suprachiasmatic nucleus, the central circadian oscillator. It increases the period (left; measured as the ratio of period during 72 h after and 72 h before application of a compound) and induces phase shift (right; quantified by fitting a cosine curve before the application of a compound, extrapolating it beyond the time of application and subtracting the actual and extrapolated phases of the first full circadian cycle corrected by endogenous period of the explant, while designating phase advance as positive and phase delay as negative number in hours). (Example 14)
Male and female mPer2Luc mice (strain B6.129S6-Per2tm1Jt/J, JAX, USA) (Yoo et al., 2004; doi: 10.1073/pnas.0308709101) were maintained in a light/dark cycle with 12 hours of light and 12 hours of darkness (LD12: 12), killed between 12:00 and 15:00, i.e. 6-9 hours after turning on the lights, by rapid cervical dislocation under isoflurane anesthesia, their brains were removed and 250 μm thick SCN slices in ice-cold HBSS medium were prepared using a vibratome (Leica, Wetzlar, Germany). Two explants containing SCN from each brain were prepared. […]

SMILES	Period length ± standard error of the mean (expressed relative to control) at the indicated concentration ([1]; 20 μM)	Period of PER2::Luc (in words) ([2]; 5 days ex vivo, vs DMSO)	Phase of PER2::Luc (in words) ([2]; polar histogram of ROIs vs DMSO)	Period length ± standard error of the mean (expressed relative to the control) at the indicated concentration ([3]; 50 μM)	Circadian rhythm period (in words) [4]	Period length ± standard error of the mean (expressed relative to control) at the indicated concentration ([1]; 1 μM)	Period length ± standard error of the mean (expressed relative to control) at the indicated concentration ([1]; 4 μM)	Period length ± standard error of the mean (expressed relative to the control) at the indicated concentration ([3]; 0.83 μM)
c1coc(CNc2ncnc3c2ncn3C2CCCCO2)c1 (stereo not drawn) [Compound 4, N-(furan-2-ylmethyl)-9-(tetrahydro-2H-pyran-2-yl)-9H-purin-6-amine]	20 μM: 1.08 ± 0	significantly (t-test, P<0.0001) increased	dramatically affected	50 μM: 1.23 ± 0.03	increases the circadian rhythm period	–	–	–
CN(C)c1nc(NCc2ccco2)c2ncn(C3CCCC3)c2n1 [Compound 15, 9-cyclopentyl-N^6-(furan-2-ylmethyl)-N^2,N^2-dimethyl-9H-purine-2,6-diamine]	–	–	–	1.56 ± 0.07	–	1.05 ± 0.01	1.15 ± 0.01	1.08 ± 0.05
